Laboratory results reported in US20240270762A1, “PENICILLIN-BINDING PROTEIN INHIBITORS” (priority 2021, published 2024).
Values after ≈ are worked out from the molar mass of the structure shown.

Key:
A. baumannii PBP2 = A. baumannii PBP2 (Acinetobacter baumannii, UniProt D0C8Z9); test: Bocillin-FL competition binding via gel filtration, A. baumannii PBP2
Procedure, shortened: (§1)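 Enzyme pre-incubated with increasing inhibitor concentrations, then Bocillin-FL added for 15 min further incubation. Bocillin-FL-bound PBP separated by gel filtration and fluorescence read. EC50 from fitting fraction PBP bound vs inhibitor concentration to a Hill-type equation (ymin, ymax, n).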

B. pseudomallei Bp82 = test: microbe, parasite or virus in culture; type: cell-based; conditions: Burkholderia pseudomallei, BP82, read-out: Minimum inhibitory concentration, B. pseudomallei Bp82
A. baumannii PBP1a = target: T1, A. baumannii PBP1a (Acinetobacter baumannii, UniProt A0ABX6CK30); test: Bocillin-FL competition binding via gel filtration, A. baumannii PBP1a; conditions: competition binding assay using Bocillin-FL via gel filtration; read-out: A. baumannii PBP1a Potency
T1 sequence (A0ABX6CK30 1-851): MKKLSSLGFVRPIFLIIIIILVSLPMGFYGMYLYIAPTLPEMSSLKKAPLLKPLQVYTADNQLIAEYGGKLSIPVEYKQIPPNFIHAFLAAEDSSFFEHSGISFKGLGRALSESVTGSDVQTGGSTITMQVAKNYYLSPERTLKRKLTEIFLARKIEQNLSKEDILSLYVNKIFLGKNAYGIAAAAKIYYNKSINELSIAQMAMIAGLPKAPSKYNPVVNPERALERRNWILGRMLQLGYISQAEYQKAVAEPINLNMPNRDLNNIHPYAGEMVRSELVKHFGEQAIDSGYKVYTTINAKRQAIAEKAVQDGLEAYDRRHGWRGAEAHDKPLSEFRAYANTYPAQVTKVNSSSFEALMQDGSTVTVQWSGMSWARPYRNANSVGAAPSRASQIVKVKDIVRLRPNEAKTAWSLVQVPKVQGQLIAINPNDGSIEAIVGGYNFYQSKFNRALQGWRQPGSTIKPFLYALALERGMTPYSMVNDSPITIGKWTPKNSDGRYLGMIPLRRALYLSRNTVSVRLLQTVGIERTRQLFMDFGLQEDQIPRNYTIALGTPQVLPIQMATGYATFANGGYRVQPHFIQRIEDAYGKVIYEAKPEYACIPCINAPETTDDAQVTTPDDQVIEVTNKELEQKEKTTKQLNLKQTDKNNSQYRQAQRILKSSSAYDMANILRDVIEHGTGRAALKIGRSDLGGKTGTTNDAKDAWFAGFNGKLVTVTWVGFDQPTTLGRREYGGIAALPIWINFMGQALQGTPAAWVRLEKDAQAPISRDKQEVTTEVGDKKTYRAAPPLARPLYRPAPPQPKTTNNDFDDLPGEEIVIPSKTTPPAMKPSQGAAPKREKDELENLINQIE
Procedure, shortened: as §1

Chain of A. baumannii PBP2 (D0C8Z9 whole entry): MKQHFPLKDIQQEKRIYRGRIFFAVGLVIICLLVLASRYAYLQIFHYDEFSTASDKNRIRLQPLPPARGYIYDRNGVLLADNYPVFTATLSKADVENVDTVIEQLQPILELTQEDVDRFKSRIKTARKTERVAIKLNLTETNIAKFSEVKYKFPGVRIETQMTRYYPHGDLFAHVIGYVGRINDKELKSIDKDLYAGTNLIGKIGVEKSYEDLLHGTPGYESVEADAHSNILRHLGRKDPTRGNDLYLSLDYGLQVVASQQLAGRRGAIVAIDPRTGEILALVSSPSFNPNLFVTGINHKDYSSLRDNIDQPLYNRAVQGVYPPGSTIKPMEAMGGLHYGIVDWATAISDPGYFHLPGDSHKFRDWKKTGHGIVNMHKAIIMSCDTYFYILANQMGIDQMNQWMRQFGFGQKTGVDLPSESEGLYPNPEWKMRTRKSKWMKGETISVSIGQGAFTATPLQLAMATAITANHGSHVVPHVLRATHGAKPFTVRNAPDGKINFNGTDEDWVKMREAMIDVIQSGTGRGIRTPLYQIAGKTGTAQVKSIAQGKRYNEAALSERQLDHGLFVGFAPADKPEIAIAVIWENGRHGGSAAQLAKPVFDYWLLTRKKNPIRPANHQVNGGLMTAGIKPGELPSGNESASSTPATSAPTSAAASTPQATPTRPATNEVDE

SMILES	EC50 (A. baumannii PBP2) [µM]	MIC (B. pseudomallei Bp82) [µg/mL]	EC50 (A. baumannii PBP1a) [µM]
O=C(NCCCN1CCN(C(=O)NC(C(=O)N[C@H]2Cc3ccc(F)c(C(=O)O)c3OB2O)c2cc(F)c(O)c(O)c2Cl)C(=O)C1=O)c1ccc(O)cc1 (stereo partly drawn) [Example 203, (3R)-3-(2-(2-chloro-5-fluoro-3,4-dihydroxyphenyl)-2-(4-(3-(4-hydroxybenzamido)propyl)-2,3-dioxopiperazine-1-carboxamido)acetamido)-7-fluoro-2-hydroxy-3,4-dihydro-2H-benzo[e][1,2]oxaborinine-8-carboxylic acid]	10 to 50	< 1	< 10
O=C(NCCCN1CCN(C(=O)NC(C(=O)N[C@H]2Cc3ccc(F)c(C(=O)O)c3OB2O)c2cc(F)c(O)c(O)c2Cl)C(=O)C1=O)c1cccc(O)c1 (stereo partly drawn) [Example 204, (3R)-3-(2-(2-chloro-5-fluoro-3,4-dihydroxyphenyl)-2-(4-(3-(3-hydroxybenzamido)propyl)-2,3-dioxopiperazine-1-carboxamido)acetamido)-7-fluoro-2-hydroxy-3,4-dihydro-2H-benzo[e][1,2]oxaborinine-8-carboxylic acid]	10 to 50	< 1	10 to 50
O=C(NCCCN1CCN(C(=O)NC(C(=O)N[C@H]2Cc3ccc(F)c(C(=O)O)c3OB2O)c2cc(F)c(O)c(O)c2Cl)C(=O)C1=O)c1ccncc1 (stereo partly drawn) [Example 205, (3R)-3-(2-(2-chloro-5-fluoro-3,4-dihydroxyphenyl)-2-(4-(3-(isonicotinamido)propyl)-2,3-dioxopiperazine-1-carboxamido)acetamido)-7-fluoro-2-hydroxy-3,4-dihydro-2H-benzo[e][1,2]oxaborinine-8-carboxylic acid]	10 to 50	< 1	50 to 250
O=C(NCCN1CCN(C(=O)NC(C(=O)N[C@H]2Cc3ccc(F)c(C(=O)O)c3OB2O)c2cc(F)c(O)c(O)c2Cl)C(=O)C1=O)c1ccc(O)cc1 (stereo partly drawn) [Example 214, (3R)-3-(2-(2-chloro-5-fluoro-3,4-dihydroxyphenyl)-2-(4-(2-(4-hydroxybenzamido)ethyl)-2,3-dioxopiperazine-1-carboxamido)acetamido)-7-fluoro-2-hydroxy-3,4-dihydro-2H-benzo[e][1,2]oxaborinine-8-carboxylic acid]	10 to 50	2 to 4 (≈ 2.68 to 5.36 µM)	10 to 50
O=C(NCCN1CCN(C(=O)NC(C(=O)N[C@H]2Cc3ccc(F)c(C(=O)O)c3OB2O)c2cc(F)c(O)c(O)c2Cl)C(=O)C1=O)c1ccncc1 (stereo partly drawn) [Example 216, (3R)-3-(2-(2-chloro-5-fluoro-3,4-dihydroxyphenyl)-2-(4-(2-(isonicotinamido)ethyl)-2,3-dioxopiperazine-1-carboxamido)acetamido)-7-fluoro-2-hydroxy-3,4-dihydro-2H-benzo[e][1,2]oxaborinine-8-carboxylic acid]	10 to 50	< 1	10 to 50
O=C(NCCN1CCN(C(=O)N[C@@H](C(=O)N[C@H]2Cc3ccc(F)c(C(=O)O)c3OB2O)c2cc(F)c(O)c(O)c2Cl)C(=O)C1=O)Nc1cccnc1 [Example 222, (R)-3-((R)-2-(2-chloro-5-fluoro-3,4-dihydroxyphenyl)-2-(2,3-dioxo-4-(2-(3-(pyridin-3-yl)ureido)ethyl)piperazine-1-carboxamido)acetamido)-7-fluoro-2-hydroxy-3,4-dihydro-2H-benzo[e][1,2]oxaborinine-8-carboxylic acid]	10 to 50	< 1	10 to 50
O=C(NCCCN1CCN(C(=O)NC(C(=O)N[C@H]2Cc3ccc(F)c(C(=O)O)c3OB2O)c2cc(F)c(O)c(O)c2Cl)C(=O)C1=O)Nc1ccc(O)cc1 (stereo partly drawn) [Example 227, (3R)-3-(2-(2-chloro-5-fluoro-3,4-dihydroxyphenyl)-2-(4-(3-(3-(4-hydroxyphenyl)ureido)propyl)-2,3-dioxopiperazine-1-carboxamido)acetamido)-7-fluoro-2-hydroxy-3,4-dihydro-2H-benzo[e][1,2]oxaborinine-8-carboxylic acid]	10 to 50	< 1	10 to 50
O=C(NCCCN1CCN(C(=O)NC(C(=O)N[C@H]2Cc3ccc(F)c(C(=O)O)c3OB2O)c2cc(F)c(O)c(O)c2Cl)C(=O)C1=O)Nc1ccncc1 (stereo partly drawn) [Example 228, (3R)-3-(2-(2-chloro-5-fluoro-3,4-dihydroxyphenyl)-2-(2,3-dioxo-4-(3-(3-(pyridin-4-yl)ureido)propyl)piperazine-1-carboxamido)acetamido)-7-fluoro-2-hydroxy-3,4-dihydro-2H-benzo[e][1,2]oxaborinine-8-carboxylic acid]	10 to 50	< 1	10 to 50
O=C(NCCN1CCN(C(=O)NC(C(=O)N[C@H]2Cc3ccc(F)c(C(=O)O)c3OB2O)c2cc(F)c(O)c(O)c2Cl)C1=O)c1nccs1 (stereo partly drawn) [Example 247, (3R)-3-(2-(2-chloro-5-fluoro-3,4-dihydroxyphenyl)-2-(2-oxo-3-(2-(thiazole-2-carboxamido)ethyl)imidazolidine-1-carboxamido)acetamido)-7-fluoro-2-hydroxy-3,4-dihydro-2H-benzo[e][1,2]oxaborinine-8-carboxylic acid]	10 to 50	< 1	–
O=C(NCCCN1CCN(C(=O)N[C@@H](C(=O)N[C@H]2Cc3ccc(F)c(C(=O)O)c3OB2O)c2cc(F)c(O)c(O)c2Cl)C1=O)c1cccc(O)c1 [Example 255, (R)-3-((R)-2-(2-chloro-5-fluoro-3,4-dihydroxyphenyl)-2-(3-(3-(3-hydroxybenzamido)propyl)-2-oxoimidazolidine-1-carboxamido)acetamido)-7-fluoro-2-hydroxy-3,4-dihydro-2H-benzo[e][1,2]oxaborinine-8-carboxylic acid]	10 to 50	< 1	10 to 50
O=C(NCCCN1CCN(C(=O)N[C@@H](C(=O)N[C@H]2Cc3ccc(F)c(C(=O)O)c3OB2O)c2cc(F)c(O)c(O)c2Cl)C1=O)Nc1cccc(O)c1 [Example 258, (R)-3-((R)-2-(2-chloro-5-fluoro-3,4-dihydroxyphenyl)-2-(3-(3-(3-(3-hydroxyphenyl)ureido)propyl)-2-oxoimidazolidine-1-carboxamido)acetamido)-7-fluoro-2-hydroxy-3,4-dihydro-2H-benzo[e][1,2]oxaborinine-8-carboxylic acid]	< 10	< 1	10 to 50
O=C(NCCCN1CCN(C(=O)NC(C(=O)N[C@H]2Cc3ccc(F)c(C(=O)O)c3OB2O)c2cc(F)c(O)c(O)c2Cl)C1=O)Nc1cccnc1 (stereo partly drawn) [Example 259, (3R)-3-(2-(2-chloro-5-fluoro-3,4-dihydroxyphenyl)-2-(2-oxo-3-(3-(3-(pyridin-3-yl)ureido)propyl)imidazolidine-1-carboxamido)acetamido)-7-fluoro-2-hydroxy-3,4-dihydro-2H-benzo[e][1,2]oxaborinine-8-carboxylic acid]	< 10	< 1	10 to 50
